Laboratory results published in PMC10649274 (International Journal of Molecular Sciences, 2023).
“And” between values parts separate entries of the source, which are not always exact repeats. Equal values may be shown once. “Also recorded” adds a separate entry of the source. Read-outs that look alike come from different tables or passages of the source.

How the values were obtained:
[1] = system: native NMDA receptors; experiment: Whole-cell patch clamp of NMDA plus glycine induced currents in isolated CA1 pyramidal neurons; type: cell-based, rat
Experimental: The rats were anesthetised with sevoflurane and then decapitated. The brains were brought out quickly and cooled to 2–4 °C. […] All experiments were performed at room temperature.
Vibrodissociation method was used to free CA1 pyramidal neurons from slices. This method allows for isolating cells without enzymatic treatment and keeping them in more native state. Pyramidal cells were isolated from the stratum pyramidale and distinguished from non-pyramidal cells on the basis of pyramidal-like somata and preserved apical dendrites.
To record membrane currents in response to applications of NMDA and glycine, the whole-cell configuration of patch clamp technique was used. Series resistance (<20 MΩ) was compensated by 70–80% and monitored during experiments. Only cells with stable holding currents were used in further analysis. The current signals were amplified using EPC-8 (HEKA Electronics, Lambrecht, Germany), filtered at 5 kHz, sampled, and stored on a personal computer. RSC-200 (BioLogic Science Instruments, Claix, France) perfusion system was used to apply the drugs under computer control. […] The pipettes with resistance of 2–5 MΩ were filled with the following solution (in mM): CsF 100, CsCl 40, NaCl 5, CaCl2 0.5, EGTA 5, HEPES 10 (pH adjusted to 7.2 with CsOH). […] Other reagents were purchased from MedChemExpress (Monmouth Junction, NJ, USA), Sigma (St. Louis, MO, USA), or Tocris Bioscience (Bristol, UK).
NMDA receptors were activated with 100 µM NMDA plus 10 µM glycine unless otherwise stated. […] Kinetics of transient processes of more than 20 ms duration were approximated with single or double exponential functions. In case of double exponential fitting, the weighted time constant was used.

[2] = target: native NMDA receptors; experiment: Analysis of voltage dependence of NMDA receptor block (Woodhull model with voltage-independent component, Equation (2)); type: cell-based, rat
Experimental: NMDA receptors were activated with 100 µM NMDA plus 10 µM glycine unless otherwise stated. The percentages of blocking of the steady-state or peak currents by different drug concentrations were measured at −80, −30 or +30 mV holding voltages. Kinetics of transient processes of more than 20 ms duration were approximated with single or double exponential functions. In case of double exponential fitting, the weighted time constant was used.
The voltage dependence of compounds’ action was analyzed with the classical Woodhull model with the addition of a voltage-independent component. […] Kb is the affinity of a drug for the channel, and δ is the electrical depth of the binding site. The δ value reflects the fraction of membrane electric field that the charged blocking molecule crosses on its pathway between the external media and the binding site in the channel.
Thus, we deduced Equation (2), taking it into account and assuming that the binding to the deep and shallow site is independent:(2) B=100−100/(1+C/(Kvd∗exp〖Fzδ/RTV〗)+C/Kvi+(C∗C)/((Kvd∗exp〖Fzδ/RTV〗∗Kvi))
In this equation, Kvd is the affinity of the drug to the deep site, Kvi—the affinity of the drug to the shallow site, and other parameters are the same as in Equation (1).
All experimental data are presented as the mean ± SD estimated from at least four experiments (cells). Significance of the effects was tested with t-tests. Differences were considered significant at p < 0.05. Concentration dependencies were approximated with Hill equation. Voltage dependencies were approximated with Equation (2). […] Approximation error values were taken as the precision measures.

[3] = system: native NMDA receptors; details: cited from earlier work
[4] = system: native NMDA receptors; details: cited from earlier work; remark: listed apart in the source
[5] = system: rat retinal excitotoxicity model; details: cited from earlier work
[6] = target: GLUN2B-containing NMDA receptor; details: fractionated rat brain membranes; read-out: IC50 of [3H]ifenprodil binding inhibition; cited from earlier work
[7] = system: animal pancreatitis models; details: cited from earlier work
[8] = Equation (2) fit, zδ free, reanalysis of the authors' earlier voltage dependence data [16],[17], read-out: Kvd
[9] = Equation (2) fit, zδ free, reanalysis of the authors' earlier voltage dependence data [16],[17], read-out: Kvi
[10] = Equation (2) with fixed zδ (0.55 mono-, 1.1 dicationic), reanalysis of earlier data [16],[17], read-out: Kvd, fixed zδ (converted)
[11] = Equation (2) with fixed zδ (0.55 mono-, 1.1 dicationic), reanalysis of earlier data [16],[17], read-out: Kvi, fixed zδ (converted)
[12] = −80 mV holding voltage, native NMDA receptors, earlier papers of the authors, read-out: IC50, −80 mV

Row | SMILES | change of inhibition with increase of NMDA concentration from 30 to 1000 µM ([1]; holding voltage not stated) | Kd [2, 8] [µM] | Kd [2, 9] [µM] | Kd [2, 10] | Kd [2, 11] [µM] | type of channel block (interaction with channel gate) [3] | IC50 [3, 12] [µM] | voltage dependence of NMDA receptor inhibition [4] | retinal protection [5] | also measured
1 | N=C(N)c1ccc(-c2ccc(-c3ccc(C(=N)N)cc3)o2)cc1 [Furamidine] | not attenuated significantly | 20 ± 5 | 3.4 ± 0.4 | 21.8 µM | 3.3 | foot-in-the-door | 0.64 ± 0.13 | strongly voltage-dependent | – | –
2 | CCOC(=O)c1ccc(OC(=O)CCCCCNC(=N)N)cc1 [Gabexate] | – | ~300 | 29 ± 8 | 800 µM | 25 | did not demonstrate any signs of a “foot-in-the-door” or trapping channel block | 16 ± 3 | Completely voltage-independent | did not demonstrate retinal protection activities | inhibition of native NMDA receptors [3]: inhibited native NMDA receptors; nature of voltage-independent inhibition [3]: agonist-dependent but non-competitive; also recorded: mostly voltage-independent and not competitive
3 | N=C(N)c1ccc(/N=N/Nc2ccc(C(=N)N)cc2)cc1 [Diminazene] | – | ~600 | 14 ± 2 | 1500 µM | 14 ± 2 | foot-in-the-door | 13 ± 3 | complex voltage dependence | – | change of inhibition with increase of NMDA concentration ([1]; −30 mV): significant attenuation; inhibition at 1 mM NMDA ([1]; −30 mV, 1 mM NMDA): remained significant; change of inhibition with increase of NMDA concentration from 30 to 1000 µM ([1]; −80 mV): did not differ significantly; Kd ([2]; fit with consensus zδ, read-out: binding constant for the deep site (Kvd)): > 1000 µM
4 | CC(C(O)c1ccc(O)cc1)N1CCC(Cc2ccccc2)CC1 (stereo not drawn) [Ifenprodil, ifenprodil] | – | – | – | – | – | – | – | – | – | share of high-affinity component in inhibition of NMDA receptor currents ([3]; CA1 pyramidal cells, biphasic concentration dependence): approximately 60%
5 | N=C(N)c1ccc2cc(OC(=O)c3ccc(N=C(N)N)cc3)ccc2c1 [Nafamostat] | not attenuated significantly | 12 ± 3 | 2.9 ± 0.5 | 10 µM and 10.5 µM | 3 | foot-in-the-door | 0.2 ± 0.04 | strongly voltage-dependent | retinoprotective properties | effect on plateau/peak ratio [3]: did not significantly change the plateau/peak ratio; overshoots after washout [3]: did not demonstrate overshoots; activity in the presence of magnesium ([3]; −30 mV, 1 mM Mg2+): attenuated in the presence of magnesium; IC50 ([3]; −30 mV, 1 mM Mg2+, read-out: IC50 in the presence of magnesium): 1.7 ± 0.2 µM; IC50 [6]: 4.52 µM; activity in animal pancreatitis models [7]: significant activity
